# Earlier results as cited in patent US20160375234A1, “[…] METHODS AND COMPOSITIONS FOR DIAGNOSING AND TREATING BREAST CONDITIONS” (ATOSSA GENETIC INC., priority 2014, published 2016).
# Tested on: early-stage, HER2-overexpressing or -amplified breast cancer
# Details: patients with early-stage, presurgical
compound,measurement,value
CS(=O)(=O)CCNCc1ccc(-c2ccc3ncnc(Nc4ccc(OCc5cccc(F)c5)c(Cl)c4)c3c2)o1 [lapatinib],growth of breast premalignancy (including ADH and DCIS) and invasive cancer,suppressed growth
